The source of these data is paper PMC11761369 (bioRxiv, 2025).

In one series the test system is BBB cells. Description: UPLC-MS of PepTGN and analogs after incubation with BBB cells. As to conditions: UPLC-MS (Figure 6C). It is filed as cell-based.
The subject of the next series is bEND.3 cell line. Kind of series: μMap profiling of PepTGN intracellular interactors. It is filed as cell-based, mouse. Conditions: 37 °C, 1 h incubation.
The format of series [1] is cell-based. As to conditions: after 30 minutes incubation; overlaying with ER-marker (ERp57/ERp60 antibody).
In series [2] the test system is clathrin-mediated endocytosis. Kind of series: Microscopy of AA3H entry with inhibition of clathrin-mediated endocytosis. In kind it is cell-based. Conditions: Pitstop2 40 μM.
The target of another series is CALCRL (Homo sapiens, UniProt O60894+Q16602). Description: Flow cytometry of FITC-labeled PepTGN internalization with blocking agents. It is filed as cell-based. As to conditions: compared to non-binding isotype control. (Flow cytometry measures light scatter and fluorescence of single cells or particles in a stream.)
Chain of CALCRL (Q16602 23-461): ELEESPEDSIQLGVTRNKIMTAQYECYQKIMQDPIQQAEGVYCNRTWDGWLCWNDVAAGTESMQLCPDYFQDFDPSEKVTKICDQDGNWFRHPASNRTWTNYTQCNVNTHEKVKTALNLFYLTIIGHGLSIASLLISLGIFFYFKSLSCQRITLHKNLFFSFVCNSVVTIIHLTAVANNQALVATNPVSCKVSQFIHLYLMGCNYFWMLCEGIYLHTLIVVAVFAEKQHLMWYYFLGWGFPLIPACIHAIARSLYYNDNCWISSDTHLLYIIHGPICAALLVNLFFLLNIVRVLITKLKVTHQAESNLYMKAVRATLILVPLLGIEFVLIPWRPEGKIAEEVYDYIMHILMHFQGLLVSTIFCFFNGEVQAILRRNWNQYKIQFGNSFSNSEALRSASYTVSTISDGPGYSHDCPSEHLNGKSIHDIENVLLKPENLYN
Chain of CALCRL (O60894 27-148): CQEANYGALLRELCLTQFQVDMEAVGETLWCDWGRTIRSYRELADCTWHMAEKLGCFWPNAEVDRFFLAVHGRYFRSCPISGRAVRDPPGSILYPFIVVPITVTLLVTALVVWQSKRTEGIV

On to AGNYKALHPHNG [T12A analog], for which the “+322 mass shift after incubation with BBB cells” value in the series on BBB cells is on record as “did not display”.
For TGNYKALHPHNG [PepTGN], the “interactor genes associated to ER and Golgi trafficking and secretory pathways” value in the series on bEND.3 cell line was “about 30%”. Also, the cellular localization result in series [1] is “distinct puncta”.
As for `O=C1NC(=NS(=O)(=O)c2cccc3ccccc23)S/C1=C\c1ccc(Br)cc1` [Pitstop2], the “effect on AA3H internalization” value in series [2] is given as “disrupted”.

B1: Erenumab: monoclonal antibody used in migraine therapy that targets CALCRL and inhibits CGRP binding (antibody, chains of the INN, looked up, V domains shown)
VH: QVQLVESGGGVVQPGRSLRLSCAASGFTFSSFGMHWVRQAPGKGLEWVAVISFDGSIKYSVDSVKGRFTISRDNSKNTLFLQMNSLRAEDTAVYYCARDRLNYYDSSGYYHYKYYGMAVWGQGTTVTVSS
VL: QSVLTQPPSVSAAPGQKVTISCSGSSSNIGNNYVSWYQQLPGTAPKLLIYDNNKRPSGIPDRFSGSKSGTSTTLGITGLQTGDEADYYCGTWDSRLSAVVFGGGTKLTVL
For the molecule B1, in the series with CALCRL, the “effect of pre-incubation on PepTGN internalization” value is given as “significantly decreased”.
